Laboratory results taken from patent publication EP0998939A1, “Chalcone plant extracts for use in therapy” (THE SCHOOL OF PHARMACY, UNIVERSITY OF LONDON, priority 1998, dated 2000).
In brackets after ≈: the same amount, converted by molar mass.

Columns and labels:
[1] = system: swiss 3T3 mouse fibroblast cells; experiment: Cell culture 3[H] thymidine assay, Example 6.3 inhibition of TPA induced proliferation (24 hours prior incubation with compound); type: cell-based; details: compound 24 hours before compound + 0.5µM TPA
Description: (§1) Cells used were swiss 3T3 mouse fibroblast cells • 1. 6 x 24 well plates were required for each experiment. • 2. Cells were removed from the standard tissue culture flask using a 1% solution of EDTA and resuspended in 10 ml of media and pipetted off into a falcon tube. • 3. The cells were then spun for 5 minutes at about 2,000rpm. • 4. The existing media was removed, and the cells again resuspended in 10ml of 10% foetal calf serum (FCS) and vortexed. • 5. The 10ml of suspension was then added to 140ml of media and mixed in a sterile jar. 1ml of the media cell suspension was then placed into each well and the plates incubated until confluent, three days .
(§2) • 1. [PCl]Cells were dosed with the test compounds (as specified below) 2 days prior to the addition of 3 [H]thymidine. The cells could only be dosed with a 0.5% solution, 5µl test solution in 1ml cellsuspension i.e. 5µl in 1ml, (TPA - 0.5µM). • 2. 0.5µl of 3[H] thymidine was added per well, therefore 72µl was added to 144µl of media (1%F.C.S.) to dose the corresponding six plates. • 3. 100µl of the media was taken to measure the measure the radioactive dose […], and added to 4ml of scintillation fluid. • 4. The radioactive media was then transferred to sterile specimen tubes and dosed with the test compounds before adding to the cells. • 5. After four hours ofbeing pulsed with radiolabelled thymidine (0.5µCi/ml) the media was removed and washed down the sink. • 6. The cells were washed twice with ice cold phosphate buffered saline (PBS), 0.5ml per well, and incubated for 30 min using ice cold 5% trichloroacetic acid (TCA) ( 1ml) per well at room temperature. • 8. The TCA was then removed and another 1ml of 5% TCA was added for 5 minutes. After the TCA was removed and 0.3NaOH and 0.1% sodium dodecyl sulphate added to each well for 30 minutes (1ml/well). • 9. The contents of each well was added to scintillation vials containing 4ml of scintillation fluid and each sample counted for four minutes using a scintillation counter. Three different assays were carried out using this protocol; • 6.1. Cytotoxicity testing of the compounds. After 48 hours of incubation and the cells were confluent a predetermined quantity of the test compounds was added to the cells. • 6.2. Inhibition of TPA induced proliferation. After 48 hours a preditermined quantity concentration of the test compounds was added to the cells as well as 0.5um of TPA. […] Inhibition of TPA induced proliferation. After 48 hours a predetermined quantity concentration of the test compounds was added to the cells for 24 hours, at 72 hours the media was changed again to contain both test compound and 0.5µM of the TPA. The objective of this experiment was to observe whether the prior incubation with the test compound had any effect on the TPA induced proliferation of the cells.

[2] = system: Female CD1 mice; experiment: Topical chemical erythema: inhibition of TPA induced erythema on the mouse ear; type: in vivo; details: for ED50 (dose required to inhibit erythema in at least 50% of the animals): applied to the right ear in 5µl, 20 minutes prior to TPA (0.1µg/5µl); for inhibition of chemically induced (TPA) erythema on the mouse ear, result in words: comparison among extracts or among the three chalcones
Description: Ref. Williamson E.M. and Evans F. (1981), Inhibition of erythema induced by proinflammatory esters of 12-deoxyphorbol. Acta Pharmacol. Toxicol.,48, 47-52
Female CD1 mice, weighing approximately 20g were used. • 2. Test plant extracts as produced in Example 1 were applied externally to the right ear of each mouse, at predetermined concentrations in 5µl quantities, 20 minutes prior to the application of the irritant compound 12-O-tetradecanoylphorbal-13-acetate (TPA)(0.1µg/5µl). • 3. A […] response was indicated by redness and inflammation of the ear. • 4. Observations were recorded at 2,3,4,6,7, and 24 hours after the application of TPA. Maximum inflammation caused by TPA alone occurs at 6 hours after the application of TPA.
Erythema of the mouse ear is the simplest experiment to perform as mice have translucent ears in which reddening is easily visible. Quantification is subjective, however the erythema can be described as pronounced, slight or absent. • Isoliquiritigenin ED50 (dose required to inhibit erythema in at least 50% of the animals) 20-50,µg • Licochalcone B ED50 5-10µg • Echinatin ED50 5-10µg

[3] = system: Blood platelets; experiment: Inhibition of blood platelet aggregation (TPA or ADP induced) in platelet rich plasma; type: cell-based, human; details: for Percentage Inhibition of ADP Induced Aggregation: ADP 6.4 µg; for Percentage Inhibition of TPA Induced Aggregation: TPA 0.5µg
Description: Blood platelets release inflammatory mediators in response to an external stimulus, which affect the proliferation of the cells, which is an important part of the disease psoriasis. • 1. Male human blood was collected via venipucture of the forearm directly in to anticoagulant buffer, from healthy donors who had denied any medication for two weeks, and centrifuged at 1000rpm for 20 minutes at room temperature. • 2. The supernatant was employed as platelet rich plasma (PRP). Platelet poor plasma (PPP) was obtained by centrifuging 1ml of PRP at 11,000 rpm for 10 minutes. • 3. Inhibition of platelet aggregation was tested by adding 2.5µl of a known concentration (containing 10µg or 50µg) of the test compound to a 500µl sample ofPRP for one minute. An aggregation agent was then added as a solution to the sample in a 2.5µl quantity (containing TPA 0.5,µg or ADP 6.4 µg). Aggregation was measured using a dual channel aggregometer . • 4. Aggregation was taken as the % change in light transmission compared to the maximum change produced by TPA or ADP plus the control solution. PRP was used as a standard for zero light transmission and PP for 100% light transmission.

[4] = system: swiss 3T3 mouse fibroblast cells; experiment: Cell culture 3[H] thymidine assay, Example 6.2 inhibition of TPA induced proliferation (compound added together with TPA); type: cell-based; details: with 0.5µM TPA
Description: as §1, §2

[5] = system: swiss 3T3 mouse fibroblast cells; experiment: Cell culture 3[H] thymidine assay, Example 6.1 cytotoxicity testing (normal cell growth); type: cell-based; details: for Percentage Inhibition of 3T3 Swiss Fibroblast Growth, Example 6.1: cytotoxicity, no TPA
Description: as §1, §2

[6] = system: human polymorphonuclear neutrophils; details: properties associated with inflammatory processes; cited from earlier work
[7] = system: male Wistar rats; experiment: UV-B induced erythema (dermatitis) in rat, epidermal thickness and number of epidermal cell layers; type: in vivo; details: five days; for No. of cells (epidermal proliferation as compared to the control, no treatment) / Thickness (epidermal thickening as compared to the control, no treatment): control = 100; for Percentage inhibition of epidermal proliferation (No. of cells, in brackets) / Percentage inhibition of epidermal thickening (in brackets): UV Exposure + Active Compound versus UV Exposure
Description: Rat UV-B induced dermatitis is characterised by a brownish red lesion with scab formation. Histologically, microvascular dilation, intraepidermal accumulation ofleukocytes and hyperproliferation of epidermal cells are all very similar to the symptoms of psoriasis in man (Nakaguma,H., Int. J.ofExp.Path, 76:65-73, 1995) • 1. Hair on the dorsal skin of male Wistar rats (180g) was clipped and shaved, whilst the rats were under anaesthesia, 24 hours prior to the experiment. • 2. The rats were covered by a black plastic sheeting, with two rectangular holes (about 1cm^2) cut out, thus allowing two exposure sites on the dorsal skin whilst protecting the rest of the animal. • 3. The rats were then exposed to UV-B light (302nm) at a distance of 10cm for six minutes and thirty seconds. The total W-B exposure was 2.4J/cm^2 as measured using a UV-X radiometer. • 4. The test compound was then placed onto one of the exposed areas and an unexposed area at a concentration of 100µg/5µl, in a suitable vehicle solution. • 5. Application of the test compound was repeated for five days. • 6. Histological post-mortem sections were taken on the fifth day, and stained using haematoxylin and eosin. The number ofepidermal cell layers and the epidermal thickness was counted and measured at random. Five animals were used per test group.

[8] = system: platelet aggregation; details: in rats, compared with aspirin; cited from earlier work
[9] = system: platelets; details: cited from earlier work
[10] = Conc. 10µg test compound in 500µl PRP
[11] = Conc. 50µg test compound in 500µl PRP
[12] = Active Compound Only, unexposed area, 100µg/5µl
[13] = UV Exposure + Active Compound, 100µg/5µl topical

| SMILES | Percentage Inhibition of 3T3 Swiss Fibroblast Growth, Example 6.3 ([1]; Concentration 1 µg) [%] | Percentage Inhibition of 3T3 Swiss Fibroblast Growth, Example 6.3 ([1]; Concentration 10 µg) [%] | Percentage Inhibition of 3T3 Swiss Fibroblast Growth, Example 6.3 ([1]; Concentration 20 µg) [%] | ED50 (dose required to inhibit erythema in at least 50% of the animals) [2] [µg] | inhibition of chemically induced (TPA) erythema on the mouse ear, result in words [2] | Percentage Inhibition of ADP Induced Aggregation [3, 10] [%] | Percentage Inhibition of ADP Induced Aggregation [3, 11] [%] | Percentage Inhibition of TPA Induced Aggregation [3, 11] [%] | Percentage Inhibition of 3T3 Swiss Fibroblast Growth, Example 6.2 ([4]; Concentration 1 µg) [%] | Percentage Inhibition of 3T3 Swiss Fibroblast Growth, Example 6.2 ([4]; Concentration 10 µg) [%] | Percentage Inhibition of 3T3 Swiss Fibroblast Growth, Example 6.2 ([4]; Concentration 20 µg) [%] | Percentage Inhibition of 3T3 Swiss Fibroblast Growth, Example 6.1 ([5]; Concentration 1 µg) [%] | Percentage Inhibition of 3T3 Swiss Fibroblast Growth, Example 6.1 ([5]; Concentration 10 µg) [%] | Percentage Inhibition of 3T3 Swiss Fibroblast Growth, Example 6.1 ([5]; Concentration 20 µg) [%] | Percentage Inhibition of 3T3 Swiss Fibroblast Growth, Example 6.3 ([1]; Concentration 0.01 µg) [%] | Percentage Inhibition of 3T3 Swiss Fibroblast Growth, Example 6.3 ([1]; Concentration 0.1 µg) [%] | effect on degranulation in human polymorphonuclear neutrophils [6] | No. of cells (epidermal proliferation as compared to the control, no treatment) [7, 12] [%] | Thickness (epidermal thickening as compared to the control, no treatment) [7, 12] [%] | Percentage inhibition of epidermal proliferation (No. of cells, in brackets) ([7]; 100µg/5µl) | further results |
| --- | --- | --- | --- | --- | --- | --- | --- | --- | --- | --- | --- | --- | --- | --- | --- | --- | --- | --- | --- | --- | --- |
| COc1cc(O)ccc1/C=C/C(=O)c1ccc(O)cc1 [Echinatin, echinatin] | 65 | 96 | 96 | 5 to 10 | most effective | 13 | 14 | 6 | 42 | 98 | 99 | 85 | 94 | 99 |  |  |  |  |  |  | Percentage Inhibition of 3T3 Swiss Fibroblast Growth, Example 6.1 ([5]; Concentration 1 µg, listed as echinatin): up to 82%; EC50 ([5]; Mus musculus, normal cell growth of 3T3 cells, exact value not established): 0.1 to 1 mg/L (≈ 0.37 to 3.7 µM) |
| O=C(/C=C/c1ccc(O)cc1)c1ccc(O)cc1O [Isoliquiritigenin, isoliquiritigenin] | 50 | 47 | 61 | 20 to 50 |  | 20 | 26 | 13 | 4 | 28 | 29 | 32 | 32 | 54 | 31 | 39 | had no effect | 103 | 102 | (77) % | Percentage inhibition of epidermal thickening (in brackets) ([7]; 100µg/5µl): (71) %; No. of cells (epidermal proliferation as compared to the control, no treatment) [7, 13]: 119%; Thickness (epidermal thickening as compared to the control, no treatment) [7, 13]: 116%; Percentage Inhibition of TPA Induced Aggregation [3, 10]: 3%; inhibiting blood platelet aggregation, result in words ([3]; comparison among the three chalcones, especially ADP induced aggregation): most active; level of inhibition of platelet aggregation [8]: comparable to aspirin; Percentage Inhibition of 3T3 Swiss Fibroblast Growth, Example 6.2 ([4]; Concentration 0.01 µg): 6%; Percentage Inhibition of 3T3 Swiss Fibroblast Growth, Example 6.2 ([4]; Concentration 0.1 µg): +4%; Percentage Inhibition of 3T3 Swiss Fibroblast Growth, Example 6.1 ([5]; Concentration 0.01 µg): 20%; Percentage Inhibition of 3T3 Swiss Fibroblast Growth, Example 6.1 ([5]; Concentration 0.1 µg): 18% |
| COc1c(/C=C/C(=O)c2ccc(O)cc2)ccc(O)c1O [Licochalcone B, licochalcone B] | 22 | 69 | 85 | 5 to 10 | most effective |  | 15 | 13 | 31 | 32 | 73 | 41 | 55 | 86 | 2 | 37 | had an effect | 103 | 96 | (83) % | Percentage inhibition of epidermal thickening (in brackets) ([7]; 100µg/5µl): (75) %; No. of cells (epidermal proliferation as compared to the control, no treatment) [7, 13]: 129%; Thickness (epidermal thickening as compared to the control, no treatment) [7, 13]: 135%; Percentage Inhibition of TPA Induced Aggregation [3, 10]: 4%; Percentage Inhibition of 3T3 Swiss Fibroblast Growth, Example 6.2 ([4]; Concentration 0.01 µg): +26%; Percentage Inhibition of 3T3 Swiss Fibroblast Growth, Example 6.2 ([4]; Concentration 0.1 µg): 17%; Percentage Inhibition of 3T3 Swiss Fibroblast Growth, Example 6.1 ([5]; Concentration 0.01 µg): 16%; Percentage Inhibition of 3T3 Swiss Fibroblast Growth, Example 6.1 ([5]; Concentration 0.1 µg): 13% |
| CCCCCCCCCCCCCC(=O)O[C@@H]1[C@@H](C)[C@@]2(O)[C@@H](C=C(CO)C[C@]3(O)C(=O)C(C)=C[C@@H]23)[C@@H]2C(C)(C)[C@]12OC(C)=O [TPA, 12-O-tetradecanoylphorbol-13-acetate] |  |  |  |  |  |  |  |  |  |  |  |  |  |  |  |  |  |  |  |  | concentration causing irreversible platelet aggregation [9]: 0.2 µM |
